These results are taken from patent publication US10472356B2, “Bicyclic ketone sulfonamide compounds” (AMGEN INC., priority 2015, dated 2019).

Common to all, as to type: cell-based
The target of experiment [1] is T1, human Nav1.7 (Homo sapiens, UniProt Q15858).
T1 construct: expressed in transfected cells; host or cells: HEK293
Put plainly: Nav 1.7 IWQ In Vitro Assay (IonWorks Quattro). Conditions: HEK293 cells stably transfected with human Nav 1.7; IonWorks Quattro population patch-clamp; 26th pulse to −20 mV, 5 Hz; cells unclamped 5 to 8 minutes with compound; read-out: hNav1.7 IWQ IC50. On the procedure:
Nav 1.7 or Nav 1.5 IWQ In Vitro Assay
HEK293 cells stably transfected with either human Nav 1.7 or human Nav 1.5 were recorded in population patch-clamp mode with the IonWorks® Quattro automated electrophysiology system (Molecular Devices, LLC, Sunnyvale, Calif.). Cells were voltage clamped to −110 mV for three seconds (Nav 1.7) or half a second (Nav 1.5) and sodium currents were elicited by a train of 26 depolarizations of 150 msec duration to −20 mV (Nav 1.7) or 0 mV (Nav 1.5) at a frequency of 5 Hz. Cells were then left unclamped for a period of 5 to 8 minutes while a single concentration of test compound was added. Following this compound incubation period, cells were then reclamped to −110 mV for three seconds (Nav1.7) or half a second (Nav1.5) to recover unbound channels and put through the same 26 pulse voltage protocol as above. Peak inward current during the 26th pulse to −20 mV (Nav 1.7) or 0 mV (Nav 1.5) in the presence of compound was divided by the peak inward current evoked by the 26th pulse to −20 mV (Nav1.7) or 0 mV (Nav1.5) in the absence of compound to determine percent inhibition. Concentration-response curves of percent.
For orientation: In patch-clamp work, channel activity is measured electrically.

The target in experiment [2] is T1, human Nav1.7. Nature of the experiment: Nav 1.7 In Vitro PatchXpress (PX) Assay. Conditions: HEK 293 cells stably transfected with human Nav1.7; PatchXpress whole cell voltage clamp; partially inactivated state (holding potential yielding 20 to 50% inactivation); read-out: hNav1.7 PX IC50. Put shortly: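 Percent inhibition of peak sodium current taken after 3 min exposure to one compound concentration, 3–5 cells each, with IC50 curve fits. Partially inactivated channels (20–50% inactivation at holding potential) in Nav1.7-HEK 293 cells, activated by 20 ms steps to −10 mV every 10 s.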

The target of experiment [3] is T1, human Nav1.7. Put plainly: Nav 1.7 IWB In Vitro Assay (IonWorks Barracuda). As to conditions: HEK293 cells stably transfected with human Nav 1.7; IonWorks Barracuda population patch-clamp; cells clamped to −20 mV for 4 minutes with compound; 26th pulse; read-out: hNav1.7 IWB IC50. Put shortly:
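IC50 derived from concentration-response of percent block of the 26th-pulse peak inward current, compound vs none. Protocol: stable human Nav 1.7 HEK293 cells on automated population patch clamp, held at −110 mV, 5 Hz train of 150 ms steps to −20 mV, 4 min compound exposure depolarized at −20 mV, 3 s repolarization, train repeated.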

T1 sequence (Q15858 whole entry): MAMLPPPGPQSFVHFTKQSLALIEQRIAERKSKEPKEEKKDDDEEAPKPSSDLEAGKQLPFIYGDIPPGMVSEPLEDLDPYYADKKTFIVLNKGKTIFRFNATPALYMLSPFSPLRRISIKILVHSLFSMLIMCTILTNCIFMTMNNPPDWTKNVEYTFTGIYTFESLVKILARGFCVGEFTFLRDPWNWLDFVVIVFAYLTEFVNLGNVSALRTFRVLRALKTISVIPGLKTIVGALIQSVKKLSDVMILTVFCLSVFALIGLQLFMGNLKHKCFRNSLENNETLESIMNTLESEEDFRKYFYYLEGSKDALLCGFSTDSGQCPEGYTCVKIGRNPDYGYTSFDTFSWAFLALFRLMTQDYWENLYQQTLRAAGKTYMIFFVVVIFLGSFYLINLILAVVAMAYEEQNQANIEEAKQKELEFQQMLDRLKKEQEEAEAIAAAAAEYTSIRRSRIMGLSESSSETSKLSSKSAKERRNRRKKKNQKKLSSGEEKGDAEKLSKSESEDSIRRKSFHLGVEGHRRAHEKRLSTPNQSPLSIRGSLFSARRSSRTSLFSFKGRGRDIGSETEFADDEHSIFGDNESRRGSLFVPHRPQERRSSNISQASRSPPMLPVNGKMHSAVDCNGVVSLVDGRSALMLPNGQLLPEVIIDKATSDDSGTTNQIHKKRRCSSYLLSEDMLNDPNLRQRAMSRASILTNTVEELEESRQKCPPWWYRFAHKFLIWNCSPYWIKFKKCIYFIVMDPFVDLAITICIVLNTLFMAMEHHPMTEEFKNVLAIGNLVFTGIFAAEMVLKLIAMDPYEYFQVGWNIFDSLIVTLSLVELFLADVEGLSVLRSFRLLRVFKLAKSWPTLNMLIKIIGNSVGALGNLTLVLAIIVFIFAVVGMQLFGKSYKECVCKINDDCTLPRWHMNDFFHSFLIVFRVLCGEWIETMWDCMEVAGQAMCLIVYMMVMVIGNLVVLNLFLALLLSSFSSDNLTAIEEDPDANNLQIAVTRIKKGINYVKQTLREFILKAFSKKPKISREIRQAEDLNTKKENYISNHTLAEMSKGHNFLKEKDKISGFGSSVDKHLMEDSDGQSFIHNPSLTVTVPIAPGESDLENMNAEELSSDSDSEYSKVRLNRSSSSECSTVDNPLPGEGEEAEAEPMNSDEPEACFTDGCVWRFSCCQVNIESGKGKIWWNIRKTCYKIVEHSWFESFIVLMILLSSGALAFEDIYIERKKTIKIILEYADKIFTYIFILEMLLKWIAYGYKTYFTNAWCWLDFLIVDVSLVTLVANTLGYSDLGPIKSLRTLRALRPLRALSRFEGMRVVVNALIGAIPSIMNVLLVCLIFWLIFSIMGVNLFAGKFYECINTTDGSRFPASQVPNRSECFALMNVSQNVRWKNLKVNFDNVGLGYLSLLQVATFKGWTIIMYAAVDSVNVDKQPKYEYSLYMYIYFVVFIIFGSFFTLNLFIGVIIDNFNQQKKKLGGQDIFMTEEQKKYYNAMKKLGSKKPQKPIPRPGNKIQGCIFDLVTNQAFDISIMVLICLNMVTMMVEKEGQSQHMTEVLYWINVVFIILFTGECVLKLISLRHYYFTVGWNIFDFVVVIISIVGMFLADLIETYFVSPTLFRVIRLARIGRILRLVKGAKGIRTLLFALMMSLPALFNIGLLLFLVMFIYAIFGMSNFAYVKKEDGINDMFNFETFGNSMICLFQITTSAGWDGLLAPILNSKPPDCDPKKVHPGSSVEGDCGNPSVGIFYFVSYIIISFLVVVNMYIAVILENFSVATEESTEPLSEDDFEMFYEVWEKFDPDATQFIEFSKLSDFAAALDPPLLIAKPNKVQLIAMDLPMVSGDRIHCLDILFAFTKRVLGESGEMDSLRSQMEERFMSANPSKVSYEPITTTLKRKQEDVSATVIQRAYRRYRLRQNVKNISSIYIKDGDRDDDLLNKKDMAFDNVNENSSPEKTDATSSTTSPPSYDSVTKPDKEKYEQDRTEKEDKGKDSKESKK

As a reminder, the IC50 is the point on the concentration scale where inhibition reaches its midpoint. For `COc1cc(Cl)cc(-c2cc(OC)c(-n3c4c(ccc3=O)CN(S(=O)(=O)Nc3ccon3)CC4)cc2F)c1` [Example 89, P-1-(3′-chloro-2-fluoro-5,5′-dimethoxy-[1,1′-biphenyl]-4-yl)-N-(isoxazol-3-yl)-2-oxo-1,2,7,8-tetrahydro-1,6-naphthyridine-6(5H)-sulfonamide], the IC50 worked out at 1.3 nM on human Nav1.7 [1], 19.9 nM at human Nav1.7 [2] and 8.8 nM at human Nav1.7 [3].
In the same order, the values of `COc1cc(OC)cc(-c2cc(OC)c(-n3c4c(ccc3=O)CN(S(=O)(=O)Nc3ccon3)CC4)cc2F)c1` [Example 90, P-1-(2-fluoro-3′,5,5′-trimethoxy-[1,1′-biphenyl]-4-yl)-N-(isoxazol-3-yl)-2-oxo-1,2,7,8-tetrahydro-1,6-naphthyridine-6(5H)-sulfonamide] are 3.2 nM, 164 nM and 36.5 nM.
The corresponding values for `COc1cc(-c2cc(OC)c(-n3c4c(ccc3=O)CN(S(=O)(=O)Nc3cccnn3)CC4)cc2F)ccc1Cl` (single isomer, unassigned) [Example 2-M, M-1-(4′-chloro-2-fluoro-3′,5-dimethoxy-4-biphenylyl)-2-oxo-N-3-pyridazinyl-1,5,7,8-tetrahydro-1,6-naphthyridine-6(2H)-sulfonamide] are 255 nM, 5530 nM and 132 nM.
In the same order, the values of `COc1cc(-c2ccc(F)c(F)c2)c(F)cc1-n1c2c(ccc1=O)CN(S(=O)(=O)Nc1cccnn1)CC2` (single isomer, unassigned) [Example 32-P, P-2-oxo-N-3-pyridazinyl-1-(2,3′,4′-trifluoro-5-methoxy-4-biphenylyl)-1,5,7,8-tetrahydro-1,6-naphthyridine-6(2H)-sulfonamide] are 18.4 nM, 144 nM and 17.5 nM.
Turning to `COc1cc(-c2cc(F)cc(Cl)c2)c(F)cc1-n1c2c(ccc1=O)CN(S(=O)(=O)Nc1ncns1)CC2` (racemic) [5-(Rac), (Rac)-1-(3′-chloro-2,5′-difluoro-5-methoxy-4-biphenylyl)-2-oxo-N-1,2,4-thiadiazol-5-yl-1,5,7,8-tetrahydro-1,6-naphthyridine-6(2H)-sulfonamide], the IC50 on human Nav1.7 [1] was 7.3 nM; at human Nav1.7 [2], 54.6 nM; at human Nav1.7 [3], 6.7 nM.
As to `COc1cc(-c2cc(F)cc(Cl)c2)c(F)cc1-n1c2c(ccc1=O)CN(S(=O)(=O)Nc1cc(C)ncn1)CC2` (single isomer, unassigned) [Example 4-P, P-1-(3′-chloro-2,5′-difluoro-5-methoxy-4-biphenylyl)-N-(6-methyl-4-pyrimidinyl)-2-oxo-1,5,7,8-tetrahydro-1,6-naphthyridine-6(2H)-sulfonamide], the IC50 is 24.3 nM on human Nav1.7 [1], 78.4 nM at human Nav1.7 [2] and 31.8 nM at human Nav1.7 [3].
In the case of `COc1cc(-c2cc(F)cc(Cl)c2)c(F)cc1-n1c2c(ccc1=O)CN(S(=O)(=O)Nc1ncccn1)CC2` (racemic) [Example 31, (Rac)-1-(3′-chloro-2,5′-difluoro-5-methoxy-4-biphenylyl)-2-oxo-N-2-pyrimidinyl-1,5,7,8-tetrahydro-1,6-naphthyridine-6(2H)-sulfonamide], the values for the IC50 at human Nav1.7 [1], on human Nav1.7 [2] and on human Nav1.7 [3] were 28.1 nM, 137 nM and 36.2 nM, respectively.
In the same order, the values of `COc1cc(-c2cc(OC)c(-n3c4c(ccc3=O)CN(S(=O)(=O)Nc3cccnn3)CC4)cc2F)ccc1Cl` (single isomer, unassigned) [Example 2-P, P-1-(4′-chloro-2-fluoro-3′,5-dimethoxy-4-biphenylyl)-2-oxo-N-3-pyridazinyl-1,5,7,8-tetrahydro-1,6-naphthyridine-6(2H)-sulfonamide] are below 19 nM, 259 nM and 6.6 nM.
